Results as given in paper PMC4801399, “Impact of a CXCL12/CXCR4 Antagonist in Bleomycin (BLM) Induced Pulmonary Fibrosis and Carbon Tetrachloride (CCl4) Induced Hepatic Fibrosis in Mice” (PLoS ONE, 2016).

System: BLM-induced pulmonary fibrosis
Test: BLM-induced murine model of pulmonary fibrosis
Assay type: in vivo, CD-1 mice
Experimental: PF was induced in six-weeks old female CD-1 mice purchased from Harlan. Animals were randomly divided into three groups (n = 10/group): PBS plus acetate buffer control, BLM plus acetate buffer and BLM plus AMD070.
On day 0, mice were anaesthetized with isoflurane and PF was induced by BLM administration. Specifically, BLM (C103610, Fresenius Kabi Canada, 2U/kg) in 40 μL PBS or vehicle control (PBS) was administrated by non-surgical endotracheal instillation with sterile disposable plastic loading pipette tips. The next day, AMD070 (Shanghai Haoyuan Chemexpress Co., 400 μg/mouse in 200 μL 30 mM acetate buffer) or 200 μL of 30 mM acetate buffer (pH 5) was administrated via oral gavage (PO) with a 20G feeding needle. AMD070 or acetate buffer vehicle was administrated daily for 21 consecutive days. Animals were euthanized with avertin overdose on day 22.
Following perfusion with PBS, lungs were fixed in 4% paraformaldehyde at 4°C for 2 days. These were embedded in paraffin, sectioned at 1 mm apart and stained with hematoxylin-eosin (H&E) and Masson’s Trichrome stains. For quantitation of percent PF, entire lung and fibrotic areas were outlined. Percent fibrotic area was calculated by dividing fibrotic area (mm^2) by total lung area (mm^2) and multiplying by 100. For H&E stained slides, two histology slides/animal were selected from the central region of the lungs and analyzed whereas only one histology slide/animal was analyzed with Masson’s Trichrome stained slides. These analyses were performed with Image J and the analyst was blinded to sample identification.

[1] = BLM plus AMD070 400 μg/mouse PO daily 21 days, day 22, mean, n = 9

With NCCCCN(Cc1nc2ccccc2[nH]1)[C@H]1CCCc2cccnc21 [AMD070] the “lung fibrosis, Masson's Trichrome” value [1] was 10.5%, the “lung inflammation, H & E stained lungs (percent surface area)” value [1] was 14.2% and the “survival over the duration of the study” value (BLM plus AMD070 400 μg/mouse PO daily, 22 days, BLM plus acetate buffer 40%) was 90%.
